Biological target: T1, M-phase inducer phosphatase 2 (Homo sapiens, UniProt P30305)
T1 sequence (P30305 whole entry): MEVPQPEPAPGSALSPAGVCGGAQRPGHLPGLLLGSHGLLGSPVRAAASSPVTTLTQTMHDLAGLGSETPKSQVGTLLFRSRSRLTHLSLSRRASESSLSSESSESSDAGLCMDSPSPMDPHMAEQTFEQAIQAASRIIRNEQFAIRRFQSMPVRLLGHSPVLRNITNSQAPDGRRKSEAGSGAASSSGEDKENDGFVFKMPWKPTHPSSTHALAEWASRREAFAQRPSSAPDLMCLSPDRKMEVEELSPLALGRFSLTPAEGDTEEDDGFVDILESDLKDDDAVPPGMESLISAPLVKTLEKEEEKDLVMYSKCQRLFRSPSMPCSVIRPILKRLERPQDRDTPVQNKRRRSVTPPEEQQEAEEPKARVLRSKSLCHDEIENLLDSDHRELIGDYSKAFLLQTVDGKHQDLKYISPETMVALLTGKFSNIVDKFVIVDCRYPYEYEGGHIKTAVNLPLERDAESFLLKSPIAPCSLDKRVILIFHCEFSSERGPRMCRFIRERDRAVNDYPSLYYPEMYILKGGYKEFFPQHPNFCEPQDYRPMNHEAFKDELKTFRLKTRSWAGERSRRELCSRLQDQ
Experiment: Cdc25B phosphatase inhibition with DTT and catalase – biochemical, 25 mM DTT, probe assessment, dose response (AID 669)

Row | SMILES | IC50 [µM]
1 | O=C(Nc1ccc2nc(-c3ccco3)c(-c3ccco3)nc2c1)N1CCCCCC1 | 40.9
2 | Cc1ccc2c(c1C)NC(C(=O)O)C1CC=CC21 (stereo not drawn) | 20.5
3 | O=C(O)C1Nc2c(O)cccc2C2C=CCC12 (stereo not drawn) | 16
4 | Cn1ncnc2c(=O)n(C)c(=O)nc1-2 | > 50
5 | [O-]/[N+](=C\c1ccncc1)c1ccccc1 | > 50
6 | COc1cccc2c(C)c(C(=O)O)[nH]c12 | 11.4
7 | O=C1C=Cc2ccccc2C1=O [1,2-dihydronaphthalene-1,2-dione] | > 50
8 | CCn1nc(-c2ccccc2)nc2c(=O)n(C)c(=O)nc1-2 [1-Ethyl-6-methyl-3-phenyl-1H-pyrimido[5,4-e][1,2,4]triazine-5,7-dione] | > 50
9 | [O-]/[N+](=C\c1ccc(OC(F)F)cc1)c1ccccc1 [1-[4-(difluoromethoxy)phenyl]-N-phenylmethanimine oxide] | > 50
10 | CCn1nc(-c2cccs2)nc2c(=O)n(C)c(=O)nc1-2 [1-ethyl-6-methyl-3-thiophen-2-yl-pyrimido[5,4-e][1,2,4]triazine-5,7-dione] | > 50
11 | O=C1Cc2ccccc2C(=O)N1CCc1ccccc1 [2-(2-phenylethyl)-4H-isoquinoline-1,3-dione] | > 50
12 | N#Cc1c(N)sc(=S)c2c1CCN(Cc1ccccc1)C2 [3-Amino-7-benzyl-1-thioxo-5,6,7,8-tetrahydro-1H-thiopyrano[3,4-c]pyridine-4-carbonitrile] | > 50
13 | Cc1ccccc1Nc1cc2ccccc2c(O)n1 [3-[(2-methylphenyl)amino]-2H-isoquinolin-1-one] | > 50
14 | COc1ccc(Br)cc1C=c1sc2nc(-c3ccco3)nn2c1=O [5-[(5-bromanyl-2-methoxy-phenyl)methylidene]-2-(furan-2-yl)-[1,3]thiazolo[3,2-b][1,2,4]triazol-6-one] | 16.8
15 | CC(=O)Nc1cc(OC(C)=O)c2nonc2c1OC(C)=O [Acetic acid 7-acetoxy-5-acetylamino-benzo[1,2,5]oxadiazol-4-yl ester] | > 50
16 | CCOC(=O)C(C(=O)OCC)c1cc(Br)c2noc3c2c1C(=O)c1ccccc1-3 [MLS000038842] | > 50
17 | Oc1nc(Nc2ccccc2)cc2ccccc12 [MLS000043701] | > 50
18 | O=C1C=Cc2ccccc2/C1=C/NC12CN3CCN(CN(C3)C1)C2 [MLS000071484] | > 50
19 | Cc1c(N=c2c(=O)c3ccccc3c2=O)c(=O)n(-c2ccccc2)n1C [MLS000105950] | > 50
20 | CCOc1ccc2noc3c2c1C(=O)c1ccccc1-3 [MLS000106837] | > 50
21 | COc1ccc2noc3c2c1C(=O)c1ccccc1-3 [MLS000106874] | > 50
22 | c1ccc(CSc2nnc(-c3ccco3)c(-c3ccco3)n2)cc1 [MLS-0029114.0001] | > 50
23 | Cc1ccc2c(c1)C1C=CCC1C(C(=O)O)N2 (stereo not drawn) [MLS-0067149.0001] | 12.1
24 | O=C(NC1(O)C(=O)c2ccccc2C1=O)c1ccccc1 [N-(2-hydroxy-1,3-dioxo-2-indenyl)benzamide] | > 50
25 | COc1cccc2c1NC(C(=O)O)C1CC=CC21 (stereo not drawn) [SMR000009698] | 13.2
26 | O=C(OC1CCCCC1)c1ccc2c(c1)C1C=CCC1C(C(=O)O)N2 (stereo not drawn) [SMR000019385] | 8.69
27 | N#Cc1c(N2CCCC2)nc(N)c2c(N)nc(N3CCCC3)cc12 [SMR000061605] | > 50
28 | Nc1cccc2cnccc12 [isoquinolin-5-amine] | > 50
